Measured values taken from patent US11091749B2, “Deimmunized lysostaphin and methods of use” (TRUSTEES OF DARTMOUTH COLLEGE, priority 2014, dated 2021).

Experiments:
MRSA strain USA400 [1] = test: In vitro inhibitory activity (MIC); assay type: cell-based, Staphylococcus aureus; details: 50° C. for 1 hour prior to assay
Excerpt: F11, P12 and F13 were screened for in vitro inhibitory activity against MRSA strain USA400 (FIG. 7).

[2] = Thermostability by differential scanning fluorimetry; assay type: physicochemical
Procedure: The relative thermostability of the lysostaphin variants was determined by differential scanning fluorimetry, as previously described (Niesen, et al. (2007) Nat. Protocols 2:2212-2221). Proteins and SYPRO Orange were diluted in PBS (final concentrations of 100 μg/ml and 5× in 20 μl reaction volume, respectively), and fluorescence was quantified at 1-degree increments from 25 to 94° C. using an Applied Biosystems ABI 7500 fast real-time PCR system. The reactions were performed using PCR Plates for Fast Thermocyclers (VWR; Radnor, Pa.). Fluorescence was quantified using the preset TAMRA parameters. Melting temperatures were determined by data analysis with the ‘DSF Analysis v3.0.xlsx’ EXCEL sheet and GraphPad Prism v.6.02 software.

S. aureus cells = test: Lytic assay using purified protein (SYTOX kinetic assay); assay type: cell-based, Staphylococcus aureus
Procedure: S. aureus cells were grown either to mid-log or to saturation in tryptic soy broth (TSB) at 37° C. with shaking. The cells were harvested by centrifugation and washed once in phosphate buffered saline (PBS: 2.7 mM KCl, 1.5 mM KH2PO4, 8.9 mM Na2HPO4, 136.9 mM NaCl, pH 7.4). The assay was performed in 96-well, black, clear bottom plates from Greiner Bio-One (Monroe, N.C.). The final (250 μl) reaction was composed of 10 μl of P. pastoris culture supernatant, S. aureus cells at OD600=1.5, and 5 μM SYTOX Green (Thermo Fisher Scientific; Waltham, Mass.), all in PBS. Data were collected using SPECTRAMAX GEMINI Fluorescence Microplate Reader (Molecular Devices; Sunnyvale, Calif.) using an excitation/emission of 504/523 nm, and rates were determined from the slope of the steepest linear portion of the trace. Each assay was performed with 500 ng of commercially-sourced lysostaphin (ssLys) as an internal control.
The activity of purified lysostaphin variants was examined using the SYTOX kinetic assay as previously described in Chapter 2, Section 3.2.6. 200 ng of purified enzyme (instead of culture supernatant) was used in each reaction.

[3] = P. pastoris expression level by SDS-PAGE; details: densitometry of SDS-PAGE gels
Procedure: After DH5a clones were confirmed for the presence of correct catalytic domain mutation by sequence analysis, the purified plasmid was digested with SacI High-Fidelity restriction enzyme prior to electroporation into P. pastoris strain GS115. The resulting transformants were grown on MD plates (1.34% yeast nitrogen base, 0.000004% biotin, 2% dextrose and 1% agar). For expression studies, clones were grown in BMGY media (1% yeast extract, 2% peptone, 1.34% yeast nitrogen base, 0.000004% biotin, 1% glycerol, 100 mM phosphate buffer, pH 6) at 30° C. in 500 ml shake flasks covered with four layers of cheese cloth for enhanced oxygen flow to the yeast. […] The purity of lysostaphin was determined using SDS-PAGE. The protein concentration was quantified using ND-1000 Spectrophotometer (NanoDrop Technologies; Wilmington, Del.). To ensure accuracy, protein absorbance measure was adjusted using the absorbance adjustment factor of 0.4 for both wild-type lysostaphin and its variants. Briefly, the adjustment factor was calculated as the inverse of the reported Abs 0.1% (=1 g/L) value (ProtParam, ExPASy).
The amount of protein used in each assay was estimated from SDS-PAGE gels. […] The gel was stained using GELCODE Blue Stain Reagent from Thermo Fisher Scientific (Carlsbad, Calif.) and bands quantified using Quantity Tools from Image Lab 5.1 software (Bio-Rad Laboratories; Hercules, Calif.). […]

MRSA strain USA400 [4] = test: Efficacy of F12 in recurrent systemic MRSA infections; assay type: in vivo, DR4 HLA transgenic mice; details: for # Treated Mice Surviving: 500 μg enzyme 1 hour later
Procedure: In a similar set of experiments, the immunogenicity and efficacy of variant F12 was compared to wild-type LST in the absence of adjuvant using DR4 HLA transgenic mice. At week 0, mice were challenged with an intraperitoneal injection of 2×10^8 MRSA strain USA400, and 1 hour later the mice were treated with 500 μg wild-type LST or 500 μg variant F12, given as a single bolus subcutaneous injection. Subsequently, mice were challenged weekly with an intraperitoneal injection of 1×10^9 MRSA strain USA400, and treated as above. Antibody titers were measured weekly beginning at week 2. […] Variant F12 rescued all mice from four recurrent, systemic, MRSA infections (Table 24). The substantially lower antibody titers elicited by variant F12 indicate that this variant is […] than wild-type LST.

Wild-Type: wild-type lysostaphin (SEQ ID NO:49) produced in P. pastoris; aglycosylated Ser126Pro backbone in the design studies [reference compound]
retained original MIC activity after heating (MRSA strain USA400 [1]): full | Tm ([2]; SYPRO Orange, PBS): 59.2 °C | Tm ([2]; biological duplicates): 59.0 °C | % Wild-Type Activity (S. aureus cells; 200 ng purified enzyme): 100% | % WT Lytic Rate (S. aureus cells; biological duplicates): 100 ± 30% | Expression Level (% WT) [3]: 100 % WT | recurrent systemic MRSA infections from which mice were rescued (MRSA strain USA400 [4]; 500 μg s.c., weekly challenges, no adjuvant): four | # Treated Mice Surviving (MRSA strain USA400 [4]; Week 0, 2×10^8 MRSA USA400 i.p., no adjuvant): 7 | # Treated Mice Surviving (MRSA strain USA400 [4]; Week 1, 1×10^9 MRSA USA400 i.p.): 6 | # Treated Mice Surviving (MRSA strain USA400 [4]; Week 2, 1×10^9 MRSA USA400 i.p.): 5 | # Treated Mice Surviving (MRSA strain USA400 [4]; Week 3, 1×10^9 MRSA USA400 i.p.): 4 | # Treated Mice Surviving (MRSA strain USA400 [4]; Week 4, 1×10^9 MRSA USA400 i.p.): 0
